This note sets out measurements from patent US20080207617A1, “Quinoline Derivatives and Quinazoline Derivatives Inhibiting Autophosphrylation of Flt3 and Medicinal Compositions Containing the Same” (KIRIN BEER KABUSHIKI KAISHA, priority 2002, published 2008).

Test [1] concerns the target T1, FLT3 (Homo sapiens, UniProt P36888).
T1 sequence (P36888 with tags, fused parts or gaps INS600HVDFREYEYD): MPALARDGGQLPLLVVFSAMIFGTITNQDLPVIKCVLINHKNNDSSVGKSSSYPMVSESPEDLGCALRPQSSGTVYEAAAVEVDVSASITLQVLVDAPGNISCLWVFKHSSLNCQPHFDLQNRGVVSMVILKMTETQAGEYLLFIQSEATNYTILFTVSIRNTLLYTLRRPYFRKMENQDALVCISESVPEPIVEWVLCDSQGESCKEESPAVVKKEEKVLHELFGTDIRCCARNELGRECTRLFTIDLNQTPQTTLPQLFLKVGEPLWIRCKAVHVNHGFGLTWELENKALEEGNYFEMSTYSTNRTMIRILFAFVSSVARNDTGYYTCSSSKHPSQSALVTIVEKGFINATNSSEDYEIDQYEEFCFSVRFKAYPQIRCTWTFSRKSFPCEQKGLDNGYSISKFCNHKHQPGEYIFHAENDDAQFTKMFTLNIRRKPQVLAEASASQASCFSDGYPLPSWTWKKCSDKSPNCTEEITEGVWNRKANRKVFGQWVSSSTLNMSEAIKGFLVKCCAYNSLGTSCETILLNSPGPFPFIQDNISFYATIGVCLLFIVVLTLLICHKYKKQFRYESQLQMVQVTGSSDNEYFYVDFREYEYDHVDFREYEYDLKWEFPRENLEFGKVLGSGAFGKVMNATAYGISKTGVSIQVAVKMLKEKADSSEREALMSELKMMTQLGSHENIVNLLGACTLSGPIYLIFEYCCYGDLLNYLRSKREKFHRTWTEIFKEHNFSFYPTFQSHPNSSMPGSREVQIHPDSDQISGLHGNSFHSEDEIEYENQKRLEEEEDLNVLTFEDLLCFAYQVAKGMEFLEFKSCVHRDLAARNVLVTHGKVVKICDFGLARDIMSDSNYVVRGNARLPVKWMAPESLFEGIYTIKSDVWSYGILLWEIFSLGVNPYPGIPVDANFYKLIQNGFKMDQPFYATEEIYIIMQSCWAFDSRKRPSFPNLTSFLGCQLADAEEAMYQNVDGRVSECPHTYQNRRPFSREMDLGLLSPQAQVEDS
Kind of test: Inhibitory activity against FLT3 autophosphorylation using ELISA method. Format: cell-based. The settings on record: MV4-11 cells, 1 hr with compound, read-out: IC50 of FLT3-phosphorylation. Here is the method: Pharmacological Test Example 1
Measurement of Inhibitory Activity Against FLT3 Autophosphorylation Using ELISA Method
Human leukemia cells MV4-11 (ATCC number: CRL-9591) were cultured in an IMDM medium containing 10% fetal calf serum (purchased from SIGMA) within a 5% carbon dioxide incubator until 50 to 90% confluent. The harvested cells were seeded into 96-wells, plates, containing an IMDM medium containing 0.1% fetal calf serum, in a 96-well multiscreen plate in an amount of 5.0×10^5 per well, a solution of the test compound in dimethyl sulfoxide was added to each well, and the cultivation was continued at 37° C. for one hr. The medium was removed, followed by washing with phosphate buffered saline. A lysis buffer (60 μl) (20 mM HEPES (pH 7.4), 150 mM NaCl, 0.2% Triton X-100, 10% glycerol, 5 mM sodium orthovanadylate, 5 mM disodium ethylenediaminetetraacetate, and 2 mM Na4P2O7) was then added thereto. The mixture was shaken at 4° C. for 2 hr to prepare a cell extracts.
Separately, phosphate buffered saline (50 μl, pH 7.4) containing 5 μg/ml of anti-phospho-tyrosine antibody (PY20; purchased from Transduction Laboratories) was added to a 96-well microplate for ELISA (Maxisorp; purchased from NUNC), followed by standing at 4° C. overnight to form a solid phase on the wells. After washing of the plate, 250 μl of a blocking solution was added, followed by standing at room temperature for 3 hr to perform blocking. After washing, the whole quantity of the cell extract was transferred to the wells, and the plate was then allowed to stand at 4° C. overnight. After washing, an anti-FLT3 antibody (Flt3/Flk2 (C-20), purchased from Santa Cruz Biotechnology) was allowed to react at room temperature for 2 hr, and, after washing, a peroxidase-labeled anti-rabbit Ig antibody (purchased from Amersham) was allowed to react at room temperature for one hr. After washing, a chromophoric substrate for peroxidase (purchased from Sumitomo Bakelite Co., Ltd.) was added thereto to initiate a reaction. After a suitable level of color development, a reaction termination solution was added to stop the reaction, and the absorbance at 450 nm was measured with a microplate reader. The FLT3-phosphorylation activity for each well was determined by presuming the absorbance without the addition of the medicament to be 100% FLT3-phosphorylation activity and the absorbance with the addition of a large excess of a positive control (Compound 1, 10 μM) to be 0% FLT3-phosphorylation activity. The concentration of the test compound was varied on several levels, the FLT3-phosphorylation inhibitory activity was determined for each case, and the concentration of the test compound necessary for inhibiting 50% of FLT3-phosphorylation (IC50) was calculated.
A general note: In an ELISA, binding on a coated surface is turned into a signal by an enzyme label.

For test [2], the system named is MOLM13. Briefly: Cell growth inhibitory activity using MTT method (MOLM13). Format: cell-based, human. As to conditions: MOLM13 cells. (In general: Tetrazolium assays rely on reduction of a dye to a coloured formazan, in cell work by metabolically active cells.)

Counter-ions that a name gives are not always drawn.

Turning to `COc1cc2nccc(Oc3ccc(NC(=O)NCCC(C)(C)C)cc3)c2cc1OC` [Compound 1, 1-[4-(6,7-Dimethoxy-quinolin-4-yloxy)-phenyl]-3-(3,3-dimethyl-butyl)-urea hydrochloride], the concentration for half-maximal inhibition (IC50) – broadly, the midpoint of a concentration-inhibition curve – is 2 nM in test [1] and 24.4 nM in test [2] (Homo sapiens, MOLM-13, 72 h).
As to `COc1cc2nccc(Oc3c(Cl)cc(NC(=O)NCCC(C)(C)C)cc3Cl)c2cc1OC` [Compound 6, 1-[3,5-Dichloro-4-(6,7-dimethoxy-quinolin--4-yloxy)-phenyl]-3-(3,3-dimethyl-butyl)-urea], the 50% inhibitory concentration (IC50) in test [1] was 109 nM; in test [2] (Homo sapiens, MOLM-13, 72 h) it was 12.4 nM.
For `COc1cc2nccc(Oc3ccc(NC(=O)NCCC(C)(C)C)cc3Cl)c2cc1OC` [Compound 8, 1-[3-Chloro-4-(6,7-dimethoxy-quinolin-4-yloxy)-phenyl]-3-(3,3-dimethyl-butyl)-urea] the same measures were less than 1 nM and 13.3 nM.
For `COc1cc2nccc(Oc3ccc(NC(=O)NCCC(C)(C)C)cc3F)c2cc1OC` [Compound 10, 1-[4-(6,7-Dimethoxy-quinolin-4-yloxy)-3-fluoro-phenyl]-3-(3,3-dimethyl-butyl)-urea hydrochloride] the same measures were less than 1 nM and 20.8 nM.
For the molecule `COc1cc2c(Oc3ccc(NC(=O)NCCC(C)(C)C)c(F)c3)ccnc2cc1OCCN1CCOCC1` [Compound 41, 1-(3,3-Dimethyl-butyl)-3-{2-fluoro-4-[6-methoxy-7-(2-morpholin-4-yl-ethoxy)-quinolin-4-yloxy]-phenyl}-urea hydrochloride], the IC50 is 308 nM in test [1] and 34.8 nM in test [2] (72 hr, hydrochloride).
Turning to `COc1cc2c(Oc3ccc(NC(=O)NCCC(C)(C)C)c(F)c3)ccnc2cc1OCCN1CCCCC1` [Compound 43, 1-(3,3-Dimethyl-butyl)-3-{2-fluoro-4-[6-methoxy-7-(2-piperidin-1-yl-ethoxy)-quinolin-4-yloxy]-phenyl}-urea hydrochloride], the IC50 in test [1] came to 216 nM; in test [2] (Homo sapiens, MOLM-13, 72 h) it was 32.5 nM.
For `COc1cc2c(Oc3ccc(NC(=O)NCCC(C)(C)C)cc3F)ccnc2cc1OCCN1CCCCC1` [Compound 44, 1-(3,3-Dimethyl-butyl)-3-{3-fluoro-4-[6-methoxy-7-(2-piperidin-1-yl-ethoxy)-quinolin-4-yloxy]-phenyl}-urea], the concentration for half-maximal inhibition (IC50) in test [1] worked out at 200 nM; in test [2] (Homo sapiens, MOLM-13, 72 h), 19.3 nM.
